The subject of series [1] is strain Methanococcus maripaludis KA-1. In words: Biological corrosion suppression test (eluted iron concentration from iron flake). The series is classed as cell-based. Conditions: 37° C., eluted iron measured at 7, 14, 21 and 28 days. The method, then: A biological corrosion suppression test of 3-Methylglutaraldehyde was performed as follows.
The liquid A was purged with a N2 gas for approximately 10 minutes and heated in an autoclave at 121° C. for 20 minutes, and then the liquid C, liquid E, liquid S, and liquid V were added thereto. 20 ml of the resulting mixture liquid was introduced into each of vials containing a sterilized iron flake (0.08 g of iron foil (10 mm length×10 mm width×0.1 mm thickness: Sigma-Aldrich 356808-G)). Each vial was purged with a gas (CO2 gas was mixed into N2 gas so as to give final concentration of 20% CO2 gas) for 5 minutes and then quickly closed with a butyl rubber cap, and the cap was fixed securely with an aluminum seal. After that, 0.5 ml (10^6 to 10^9 cells/ml) of the strain Methanococcus maripaludis KA-1 was added with a syringe, and 3-methylglutaraldehyde was further added so as to give the concentration shown in FIG. 1. Each vial was allowed to stand at 37° C., and the concentration of eluted iron was measured at 7 days, 14 days, 21 days, and 28 days for checking the progress of the biological corrosion of the iron flake. […]

A short description of series [2]: Contact of acetal compound A with hydrochloric acid aqueous solution pH 4.0, analysed by gas chromatography. The series is classed as physicochemical. The following applies: nitrogen atmosphere. The method, then:
Hydrochloric acid was added to distilled water to adjust the pH to 4.0, thereby preparing a hydrochloric acid aqueous solution. To 100 g of the hydrochloric acid solution was added 2.0 g of an acetal compound represented by the following formula:
[drawing 5] (hereinunder, referred to as acetal compound A), and the mixture was stirred at 80° C. under nitrogen atmosphere. After 1 hour, a part was taken and analyzed by a gas chromatography. As a result, it was confirmed that 97.2% of the acetal compound A was consumed and 3-methylglutaraldehyde was produced at 82.6%. [Conditions of Gas Chromatography]
Hydrochloric acid was added to distilled water to adjust the pH to 4.0, thereby preparing a hydrochloric acid aqueous solution. To 100 g of the hydrochloric acid solution was added 2.0 g of the acetal compound A, and the mixture was stirred at 30° C. under nitrogen atmosphere. After 50 hours, a part was taken and analyzed by a gas chromatography in the same manner as in Example 3. As a result, it was confirmed that 52.5% of the acetal compound A was consumed and 3-methylglutaraldehyde was produced at 47.3%.

Each structure is given as a SMILES string.

In the case of `O=CCCCC=O` [glutaraldehyde, reference compound], the “addition concentration at which the concentration of eluted iron was suppressed to a sufficiently low level” value in series [1] is listed as 100 ppm. As to `CC(CC=O)CC=O` [3-methylglutaraldehyde], the “addition concentration at which the concentration of eluted iron was suppressed to a sufficiently low level” value in series [1] stood at 1 ppm. `CC(CC=O)CC1OCCO1` (stereo not shown) [acetal compound A]: the “acetal compound A consumed” value worked out at 52.5% in series [2] (hydrochloric acid aqueous solution pH 4.0, 30° C., after 50 hours) and 97.2% in series [2] (hydrochloric acid aqueous solution pH 4.0, 80° C., after 1 hour).

For the origin of these results see patent US10087404B2, “Biological corrosion inhibitor for metals” (KURARAY CO., LTD., priority 2014, dated 2018).
